The source of these data is PubChem BioAssay (NCI).

Structures are written as SMILES.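 Where inhibition never reached the appropriate level, the endpoint shown equals the highest concentration tested. Otherwise, values were interpolated linearly from a five-concentration, 48-hour dose response in 96-well plates. At the TGI there is no net growth.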 Where only a bound is given, the exact number is not on record here.

Among the test systems are HCT-116 colon; HL-60(TB) leukemia; HOP-92 NSCLC; K-562 leukemia; LOX IMVI melanoma; MALME-3M melanoma; NCI-H226 lung; NCI-H460 lung; OVCAR-8 ovarian; RXF 393 renal; SF-268 CNS; SN12C renal; SNB-19 CNS; SNB-75 CNS; TK-10 renal; U251 CNS; UO-31 renal.
Assay in all cases: inhibition of tumour cell growth, NCI panel, 48 h

In the case of `CCCCCCSCC/C(C)=N\OC`, the TGI in the assay on HCT-116 colon, with HL-60(TB) leukemia, in the assay with HOP-92 NSCLC, in the assay on K-562 leukemia, with LOX IMVI melanoma and with MALME-3M melanoma was over 100 µM each time. The TGI in the assay on NCI-H226 lung, in the assay with NCI-H460 lung, in the assay with OVCAR-8 ovarian, in the assay on RXF 393 renal, in the assay on SF-268 CNS and with SN12C renal was over 100 µM throughout. In addition, the TGI in the assay on SNB-19 CNS, with SNB-75 CNS, in the assay on TK-10 renal, in the assay with U251 CNS and in the assay with UO-31 renal was over 100 µM throughout.
Take `O=C(N/N=C(/c1nc2ccc([N+](=O)[O-])cc2[nH]c1=O)C(O)c1ccc([N+](=O)[O-])cc1)c1ccncc1` (stereo not given): the TGI in the assay on HCT-116 colon, in the assay with HL-60(TB) leukemia, in the assay on HOP-92 NSCLC, in the assay on K-562 leukemia, in the assay with LOX IMVI melanoma and in the assay on MALME-3M melanoma was over 100 µM each time. Moreover, the TGI in the assay on NCI-H226 lung, in the assay with NCI-H460 lung, with OVCAR-8 ovarian, in the assay on SF-268 CNS, with SN12C renal and with SNB-75 CNS was over 100 µM in each case. The TGI in the assay on TK-10 renal, with U251 CNS and in the assay with UO-31 renal was over 100 µM throughout.
`O=C(O)C1CCCCN1C(=O)Cc1c[nH]c2ccccc12` (stereo not given): the TGI with HCT-116 colon, with HL-60(TB) leukemia, in the assay with HOP-92 NSCLC, in the assay with K-562 leukemia, in the assay with LOX IMVI melanoma and in the assay on MALME-3M melanoma was over 100 µM in each case. Besides, the TGI in the assay on NCI-H226 lung, with NCI-H460 lung, in the assay with OVCAR-8 ovarian, in the assay with RXF 393 renal, in the assay with SF-268 CNS and in the assay on SN12C renal was over 100 µM throughout. For the same compound, the TGI in the assay on SNB-19 CNS, in the assay on SNB-75 CNS, with TK-10 renal and in the assay with U251 CNS was over 100 µM each time.
Turning to `C/C(=N/NC(=O)C[n+]1ccccc1)C(CN(CC(C)C)CC(C)C)C(=O)Nc1ccc(C)cc1C` (stereo not given), the TGI with HCT-116 colon, in the assay with HL-60(TB) leukemia, in the assay on HOP-92 NSCLC, in the assay on K-562 leukemia, in the assay with MALME-3M melanoma and in the assay on NCI-H460 lung was over 100 µM each time. In addition, the TGI in the assay on OVCAR-8 ovarian, in the assay on RXF 393 renal, with SF-268 CNS, in the assay on SN12C renal, in the assay on SNB-19 CNS and in the assay with TK-10 renal was over 100 µM each time. Besides, the TGI in the assay with UO-31 renal is 82.8 µM.
With `CCCCNC(=NCc1ccccc1)NC#N`, the TGI with HCT-116 colon, in the assay on HL-60(TB) leukemia, with HOP-92 NSCLC, with LOX IMVI melanoma, in the assay with MALME-3M melanoma and in the assay with NCI-H226 lung was over 100 µM throughout. Also, the TGI in the assay on NCI-H460 lung, in the assay with OVCAR-8 ovarian, with SF-268 CNS, in the assay on SN12C renal, with SNB-19 CNS and with SNB-75 CNS was over 100 µM each time. Further, the TGI in the assay with TK-10 renal, in the assay on U251 CNS and with UO-31 renal was over 100 µM each time.
As for `Clc1ccc(CCc2ccncn2)c(Cl)c1`, the TGI with HCT-116 colon, in the assay with HL-60(TB) leukemia, in the assay with HOP-92 NSCLC, in the assay with K-562 leukemia, in the assay on LOX IMVI melanoma and in the assay on MALME-3M melanoma was over 100 µM each time. The TGI in the assay on NCI-H226 lung was over 100 µM; with NCI-H460 lung, over 100 µM; with OVCAR-8 ovarian it was over 100 µM; in the assay with RXF 393 renal, 82.4 µM; in the assay with SF-268 CNS, over 100 µM; in the assay with SN12C renal it was over 100 µM. The TGI in the assay on SNB-19 CNS was over 100 µM; with SNB-75 CNS, over 100 µM; with TK-10 renal, over 100 µM; in the assay with U251 CNS, over 100 µM; in the assay on UO-31 renal, 94 µM.
In the case of `Oc1cc(CN2CCOCCOCCOCCOCC2)c(O)cc1CN1CCOCCOCCOCCOCC1`, the TGI in the assay on HCT-116 colon is 43.4 µM; in the assay with HL-60(TB) leukemia, 52.4 µM; with HOP-92 NSCLC, 49.7 µM; in the assay on K-562 leukemia, over 75.2 µM; in the assay with LOX IMVI melanoma it was 66.4 µM; with NCI-H226 lung, over 85 µM. The TGI is over 100 µM with NCI-H460 lung; over 100 µM in the assay on OVCAR-8 ovarian; 60.5 µM in the assay on RXF 393 renal; 96.8 µM in the assay on SF-268 CNS; over 100 µM in the assay with SNB-19 CNS; over 100 µM in the assay with SNB-75 CNS. In addition, the TGI in the assay on TK-10 renal is over 96.2 µM; in the assay with U251 CNS, over 56.8 µM; in the assay on UO-31 renal it was over 100 µM.
In the case of `Cc1cc(C)c2c(c1)N[S@@](=O)S2`, the TGI in the assay with HCT-116 colon is 32.8 µM; in the assay on HL-60(TB) leukemia it was 61.2 µM; in the assay on HOP-92 NSCLC, over 100 µM; in the assay on K-562 leukemia it was 67.9 µM; in the assay with LOX IMVI melanoma, 30.7 µM; in the assay with MALME-3M melanoma, 58.1 µM. For the same compound, the TGI in the assay on NCI-H226 lung was 38.5 µM; in the assay on NCI-H460 lung it was 46.5 µM; with OVCAR-8 ovarian, 33.2 µM; in the assay with RXF 393 renal, 26.3 µM; in the assay on SF-268 CNS, 34.5 µM; with SN12C renal it was 36.7 µM. Besides, the TGI in the assay with SNB-19 CNS was over 100 µM; in the assay with SNB-75 CNS, over 100 µM; with TK-10 renal it was 80.3 µM; with U251 CNS, 31.1 µM; in the assay on UO-31 renal it was 39.4 µM.
